Counter-ions that a name gives are not always drawn. Like-named read-outs stand apart in the source and are kept apart here.

Consider 21 compounds from PMC2688476, “Low affinity glucocorticoid binding site ligands as potential anti-fibrogenics” (Comparative Hepatology, 2009).

The target in series [1] is low affinity glucocorticoid binding site (LAGS) in rat liver microsomes (Rattus norvegicus, UniProt P70580). In words: Competition with radiolabelled dexamethasone for specific binding to rat liver microsomes (LAGS activity). The conditions noted are these: for IC50: vs radiolabelled dexamethasone. Here is the method: A small volume of each incubation was removed to determine the total ligand concentration ([L0]) prior to removal of free unbound ligand by dextran/charcoal adsorption. […] Free ligand concentration at equilibrium was calculated by subtracting specifically bound ligand at equilibrium from the total ligand concentration (i.e. [L0] - [LRe]) and assumes receptor-ligand stoichiometry of 1:1.
In brief, rats were anaesthetized with pentobarbital and a 16G cannula inserted into the hepatic portal vein and secured. […] The liver was then excised and chopped roughly with ice-cooled TS buffer (10 mM Tris/HCl pH 7.4 containing 250 mM sucrose) and disrupted using a Potter-Elvehjem homogenisor. The resultant homogenate was then centrifuged at 12,000 g for 20 minutes at 4°C and the supernatant retained and centrifuged at 100,000 g for 60 minutes at 4°C. The resultant "microsomal" pellet was re-suspended in fresh TS buffer and re-centrifuged at 100,000 g to obtain a washed microsomal pellet. […] After overnight incubation on ice, free ligand was removed by charcoal dextran adsorption and bound radioligand determined in supernatants by liquid scintillation, essentially as previously described.
(In general: Microsomes from liver hold many membrane-bound enzymes, among them those of drug oxidation.)

Series [2] has as its system human HSCs. In words: Human HSC trans-differentiation/proliferation (confluence, α-sma). The series is classed as cell-based. The conditions noted are these: confluence at day 12. Here is the method:
(§1) Figure 5 Screening for inhibitors of trans-differentiation in rat and human HSCs – Part 1. Rat HSCs were isolated and cultured for 2 days (T0) whereupon cells were treated with the indicated compound as outlined in methods section. After 9 days, cells were analyzed by Western blotting for α-smooth muscle actin (α-sma). Each lane contains 10 μg total protein/lane, results typical of at least 3 separate experiments (a). Human HSCs were treated with the indicated compound and confluence determined in randomly selected fields. Data are the mean and standard deviation confluence at day 12 of 3 separate treatment dishes from the same donor, typical of at least 3 separate donors (b).
Figure 6 Screening for inhibitors of trans-differentiation in rat and human HSCs – Part 2. Photomicrographs of human HSCs at day 12 of culture with the indicated treatment (a); levels of expression of α-smooth muscle actin (α-sma) (b) and levels of expression of fibrogenic marker mRNA transcripts in human HSCs after treatment selected compounds for 19 days. Data are the mean and standard deviation relative transcript level from 3 separate treatments on cells from the same donor, typical of at least 3 separate donors (c).
(§2) HSCs were isolated from rats (250–300 g body weight, Harlan, UK) by sequential pronase/collagenase perfusion of the liver followed by density gradient centrifugation and elutriation as previously outlined. Human HSCs were isolated by an essentially similar procedure using discarded tissue from patients undergoing a hepatectomy with patient consent and ethical approval by the Grampian Regional Ethical Committee. HSCs were seeded onto plastic culture dishes and cultured in Dulbecco's modified Eagle Medium (DMEM) containing 4.5 g/l of glucose and supplemented with 5% or 16% (v/v) fetal calf serum (for rat or human respectively), […] penicillin, 80 μg/ml streptomycin and 32 μg/ml gentamycin. Additional treatments were made by addition of compounds in an ethanol vehicle (stock solutions at 1000× final concentration). Ethanol at 0.1% (v/v) acted as control. Frequency of treatment (3 treatments per week/2 medium changes per week), as previously described.

In series [3] the test system is rat HSCs. In words: Rat HSC-to-myofibroblast trans-differentiation (α-smooth muscle actin Western blot). It counts as cell-based. The conditions noted are these: α-sma Western blot after 9 days of treatment. Here is the method: as §1, §2
(In western blotting, separated proteins are transferred to a membrane and probed.)

The target of series [4] is progesterone binding protein in pig liver microsomes. The conditions noted are these: read-out: IC50% for competition for progesterone binding protein; cited from earlier work.
Series [5] deals with CYP3A4. In words: Screening for PXR activators in human hepatocytes via CYP3A induction (Western blot). The series is classed as cell-based. The conditions noted are these: 24 hours treatment, Western blot.
Series [6] has as its system CYP3A1/3A23. In words: Screening for PXR activators in rat hepatocytes via CYP3A induction (Western blot). It counts as cell-based. The conditions noted are these: 10 μM for 24 hours (PCN 20 μM), Western blot.
The target in series [7] is T1, rPGRMC1 (Rattus norvegicus, UniProt P70580).
T1 construct: the full length cDNA for rPGRMC1 was cloned from rat myofibroblasts and expressed in COS-7 cells; expressed in transfected cells; host or cells: COS-7 cells transfected with pSG5-rPGRMC1
In words: Dexamethasone binding competition in COS-7 cells transfected with pSG5-rPGRMC1. Conditions: unlabelled competitor, Fig. 2e. Here is the method:
Western blot for rPGRMC1 in various cell fractions using the anti-IZ Ab in COS-7 cells transfected with the indicated construct. All lanes were loaded with 10 μg protein/lane. Note, HC5 is a truncated form of rPGRMC1 cloned from rat kidney (a). Western blot for rPGRMC1 using the anti-IZ Ab and CYP2E1 (lower blot). Rat hepatocytes were cultured for 24 hours to allow attachment (T0) and then treated for 24 hours with the indicated ligand or ethanol vehicle prior to analysis. Each lane contains 10 μg total protein/well, typical of 3 separate experiments (b). […] The percentage of cells that stained positive for beta galactosidase activity (grey bars) was determined in situ in separate wells by examining at least 5 randomly selected low power fields. […] The percent of binding in the presence of unlabelled competitors was determined after subtraction of non-specific binding. […]
COS-7 cells were transfected at 30–50% confluency using Effectene transfection reagent (Qiagen, Southampton, UK) essentially according to the manufacturer's instructions with either pSG5 empty vector, pSG5-rPGRMC1 or the β-galactosidase-encoding pcDNA3.1e/lacZ vector (Invitrogen, Paisley, UK). Thirty hours after transfection, β-galactosidase activity was determined in fixed cells,in situ. […]

In series [8] the test system is human myofibroblasts. In words: Fibrogenic marker mRNA transcripts (TGFβ, TIMP1, collagen 1A1) in human myofibroblasts, qRT-PCR. The series is classed as cell-based. Conditions: treatment for 19 days. An excerpt: Quantitative transcript expression was examined after reverse transcription (using a Taqman reverse transcription kit (Applied Biosystems)) using a PE Applied Biosystems ABI7700 and PE Applied Biosystems Gene Expression Assay™, incorporating sequence-specific forward, reverse and fluorescently labelled probes (see Table 2).

Setting [9] is: read-out: IC50% (competition of dexamethasone derivatives for binding to rat liver microsomes), Additional file 2.
Setting [10] is: read-out: IC50% (competition of substituted progestins for binding to rat liver microsomes), Additional file 1.

low affinity glucocorticoid binding site (LAGS) in rat liver microsomes, sequence (P70580 2-195): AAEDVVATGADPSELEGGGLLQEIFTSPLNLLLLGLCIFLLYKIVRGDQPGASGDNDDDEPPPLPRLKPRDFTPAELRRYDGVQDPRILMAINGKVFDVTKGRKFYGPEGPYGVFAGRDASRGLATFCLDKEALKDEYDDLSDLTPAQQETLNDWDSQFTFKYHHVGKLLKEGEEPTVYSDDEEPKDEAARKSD
T1 sequence (P70580 whole entry): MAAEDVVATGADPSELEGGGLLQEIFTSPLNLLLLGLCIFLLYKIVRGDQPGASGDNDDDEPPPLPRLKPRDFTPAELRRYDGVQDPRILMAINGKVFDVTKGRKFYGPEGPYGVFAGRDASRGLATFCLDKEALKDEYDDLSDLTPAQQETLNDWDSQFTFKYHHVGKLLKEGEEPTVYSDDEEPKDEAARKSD

As a reminder, the IC50 is the concentration needed to halve the response being measured. Turning to `C[C@@H]1C[C@H]2[C@@H]3CCC4=CC(=O)C=C[C@]4(C)[C@@]3(F)[C@@H](O)C[C@]2(C)[C@@]1(O)C(=O)COS(C)(=O)=O` [dexamethasone mesylate], in series [1] (setting [9]), the IC50 worked out at 10 µM.
As to `CC(=O)[C@H]1CC[C@H]2[C@@H]3CCC4=CC(=O)CC[C@]4(C)[C@H]3[C@H](OS(=O)(=O)c3ccc(C)cc3)C[C@]12C` [11α-progesterone tosylate], the IC50 in series [1] (setting [10]) came to 10 µM.
Same read-out and setting: for `CCC(=O)O[C@H]1CC[C@H]2[C@@H]3CCC4=CC(=O)CC[C@]4(C)[C@H]3CC[C@]12C` [testosterone proprionate, reference compound] the value was 10 µM.
On to `CC(=O)[C@H]1CC[C@H]2[C@@H]3CCC4=CC(=O)CC[C@]4(C)[C@H]3CC[C@]12C` [progesterone, reference compound], for which the “inhibitory activity on human HSC trans-differentiation” value in series [2] was “significant inhibitory activity”. In addition, the “competition for dexamethasone binding to rat liver microsomes (in words)” value in series [1] (rat liver microsomes) is reported as “competed”. Also, the “inhibition of rat HSC trans-differentiation” value in series [3] was “markedly inhibited”.
With `C[C@@H]1C[C@H]2[C@@H]3CCC4=CC(=O)C=C[C@]4(C)[C@@]3(F)[C@@H](O)C[C@]2(C)[C@@]1(O)C(=O)CO` [dexamethasone, reference compound], the “maximal binding site concentration” value in series [1] (radiolabelled dexamethasone, rat liver microsomes) is on record as 8.3 pmoles/mg of microsomal protein. Further, in series [4], the 50% inhibitory concentration (IC50) was greater than 100 µM.
On to `CC(=O)[C@H]1CC[C@H]2[C@@H]3CCC4=CC(=O)CC[C@]4(C)[C@H]3[C@H](O)C[C@]12C` [11α-hydroxyprogesterone], for which, in series [1] (setting [10]), the IC50 amounted to 0.1 µM.
Regarding `CC(=O)O[C@@H]1C[C@H]2[C@@H]3CC[C@H](C(C)=O)[C@@]3(C)CC[C@@H]2[C@@]2(C)CCC(=O)C=C12` [6β-progesterone acetate], the IC50 in series [1] (setting [10]) was determined as 0.5 µM.
On to `CC(=O)O[C@@H]1C=C2CC[C@H]3[C@@H]4CC[C@H](C(C)=O)[C@@]4(C)CC[C@@H]3[C@@]2(C)CC1` [4 pregnene-3β-ol-20-one acetate], for which the IC50 in series [1] (setting [10]) came out at 0.5 µM.
With `CC(=O)[C@H]1CC[C@H]2[C@@H]3CCC4=CC(=O)CC[C@]4(C)[C@H]3[C@@H](O)C[C@]12C` [11β-hydroxyprogesterone], in series [2], the “inhibitory activity on human HSC trans-differentiation” value is given as “significant inhibitory activity”.
As to `C[C@H]1C[C@@H]2[C@H]([C@@H](O)C[C@@]3(C)[C@H]2CC[C@]3(O)C(=O)CO)[C@@]2(C)C=CC(=O)C=C12` [methylprednisolone, reference compound], the “CYP3A4 expression (induction) in human hepatocytes” value in series [5] is reported as “evidence of induction”.
Consider biotinylated dexamethasone, for which the IC50 in series [1] (setting [9]) was greater than 100 µM.
Regarding `CC(=O)O[C@@H]1C[C@]2(C)[C@@H](C(C)=O)CC[C@H]2[C@@H]2CCC3=CC(=O)CC[C@]3(C)[C@H]21` [11α-progesterone acetate], the IC50 in series [1] (setting [10]) came out at 0.1 µM.
On to `C[C@]12CCC(=O)C=C1CC[C@@H]1[C@@H]2CC[C@]2(C)C(=O)CC[C@@H]12` [androstenedione, reference compound], for which the IC50 in series [1] (setting [10]) came to 5 µM.
On the same count and under the same terms, the result for `CC(=O)[C@H]1CC[C@H]2[C@@H]3C[C@@H](O)C4=CC(=O)CC[C@]4(C)[C@H]3CC[C@]12C` [6β-hydroxyprogesterone] reads 10 µM.
On to `CC1CC2C3CCC4=CC(=O)C=CC4(C)C3(F)C(O)CC2(C)C1(O)C(=O)O` (stereo not drawn) [17β-carboxylic acid derivative, 9α-fluoro 16α-methyl-11β,17α-dihydroxy-1,4-pregn-3-one 17-carboxylic acid], for which, in series [1] (setting [9]), the half-maximal inhibitory concentration (IC50) was determined as 100 µM.
As for `CC(=O)[C@H]1CC[C@H]2[C@@H]3CCC4=C[C@@H](O)CC[C@]4(C)[C@H]3CC[C@]12C` [4 pregnene-3β-ol-20-one], the half-inhibitory concentration (IC50) in series [1] (setting [10]) was determined as 0.5 µM.
Regarding `CCOC(=O)[C@H]1CC[C@H]2[C@@H]3CCC4=CC(=O)CC[C@]4(C)[C@H]3CC[C@]12C` [4 androstene-3-one 17β-carboxylic acid ethyl ester], in series [1] (setting [10]), the IC50 was 0.1 µM.
`CC(=NOCC(=O)O)[C@H]1CC[C@H]2[C@@H]3CCC4=C[C@@H](O)CC[C@]4(C)[C@H]3CC[C@]12C` [4 pregnene-3β-ol-20-one carboxymethyloxime]: the concentration for half-maximal inhibition (IC50) in series [1] (setting [10]) is greater than 100 µM.
As to `CC(=O)[C@H]1[C@H](C#N)C[C@H]2[C@@H]3CC=C4C[C@@H](O)CC[C@]4(C)[C@H]3CC[C@@]21C` [PCN, pregnenolone 16α carbonitrile], in series [6], the “CYP2E expression in rat hepatocytes” value is “no affect” and the “CYP3A1/3A23 expression (induction) in rat hepatocytes” value was “induced”. Further, the “competition with dexamethasone for binding to COS-7 cell extracts over-expressing rPGRMC1” value in series [7] was “significant competition”. Further, the “inhibition of rat HSC trans-differentiation” value in series [3] was “inhibited”.
`CO[C@H]1/C=C/O[C@@]2(C)Oc3c(C)c(O)c4c(O)c(c(/C=N/N5CCN(C)CC5)c(O)c4c3C2=O)NC(=O)/C(C)=C\C=C\[C@H](C)[C@H](O)[C@@H](C)[C@@H](O)[C@@H](C)[C@H](OC(C)=O)[C@@H]1C` [rifampicin, reference compound]: the “inhibitory activity on human HSC trans-differentiation” value in series [2] is reported as “significant inhibitory activity”. For the same compound, the “expression of TGFβ, TIMP1 and collagen 1A1 mRNAs in human myofibroblasts” value in series [8] is “inhibited the expression of all mRNAs”.
With `CC(=O)[C@H]1CC[C@H]2[C@@H]3C[C@@H](O)C4=CC(=O)CC[C@]4(C)[C@H]3CC[C@]12C` [6α-hydroxyprogesterone], in series [1] (setting [10]), the half-inhibitory concentration (IC50) came out at 5 µM.
